Values after ≈ are worked out from the molar mass of the structure shown.

The values below come from ChEMBL document CHEMBL4002584, “Synthesis and antibacterial activities of novel pleuromutilin derivatives with a substituted pyrimidine moiety” (2017).

Format in all cases: functional
The subject of experiment [1] is Staphylococcus aureus. Kind of experiment: Antibacterial activity against […] Staphylococcus aureus ATCC 33591 at 320 ug/ml after 24 to 36 hrs by oxford cup assay. Particulars: read-out: DIZ.
Experiment [2] has as its system Staphylococcus aureus. Kind of experiment: Antibacterial activity against […] Staphylococcus aureus ATCC 29213 after 24 to 48 hrs by agar dilution method.
For experiment [3], the system named is Staphylococcus aureus. Kind of experiment: Antibacterial activity against […] Staphylococcus aureus ATCC 29213 at 320 ug/ml after 24 to 36 hrs by oxford cup assay. Conditions: read-out: DIZ.
The test system of experiment [4] is Bacillus subtilis. As to the kind of experiment: Antibacterial activity against Bacillus subtilis CMCC (B) 63501 after 24 to 48 hrs by agar dilution method.
Experiment [5] concerns Staphylococcus aureus. As to the kind of experiment: Antibacterial activity against Staphylococcus aureus CMCC (B) 26003 after 24 to 48 hrs by agar dilution method. For orientation: In agar dilution the substance is mixed into plates at graded concentrations.
Experiment [6] relates to Escherichia coli. As to the kind of experiment: Antibacterial activity against Escherichia coli CMCC (B) 44102 at 160 ug/ml after 24 to 36 hrs by oxford cup assay. Particulars: read-out: DIZ.
Experiment [7] deals with Staphylococcus aureus. As to the kind of experiment: Antibacterial activity against Staphylococcus aureus CMCC (B) 26003 at 320 ug/ml after 24 to 36 hrs by oxford cup assay. Conditions: read-out: DIZ.
Experiment [8] deals with Escherichia coli. As to the kind of experiment: Antibacterial activity against Escherichia coli CMCC (B) 44102 after 24 to 48 hrs by agar dilution method.
The test system of experiment [9] is Staphylococcus aureus. Kind of experiment: Antibacterial activity against Staphylococcus aureus CMCC (B) 26003 at 160 ug/ml after 24 to 36 hrs by oxford cup assay. Conditions: read-out: DIZ.
For experiment [10], the system named is Staphylococcus aureus. As to the kind of experiment: Ratio of MIC for […] Staphylococcus aureus ATCC 29213 to MIC for Staphylococcus aureus CMCC (B) 26003.
Experiment [11] deals with Staphylococcus aureus. As to the kind of experiment: Bactericidal activity against Staphylococcus aureus CMCC (B) 26003 at 6 times MIC after 4 hrs by time-kill assay relative to control.
In experiment [12] the test system is Staphylococcus aureus. Kind of experiment: Antibacterial activity against […] Staphylococcus aureus ATCC 33591 after 24 to 48 hrs by agar dilution method.
Experiment [13] relates to Staphylococcus aureus. As to the kind of experiment: Bactericidal activity against Staphylococcus aureus CMCC (B) 26003 assessed as bacterial level at MIC after 1 to 24 hrs by time-kill assay.
For experiment [14], the system named is Bacillus subtilis. As to the kind of experiment: Antibacterial activity against Bacillus subtilis CMCC (B) 63501 at 160 ug/ml after 24 to 36 hrs by oxford cup assay. Particulars: read-out: DIZ.
The subject of experiment [15] is Bacillus subtilis. Kind of experiment: Antibacterial activity against Bacillus subtilis CMCC (B) 63501 at 320 ug/ml after 24 to 36 hrs by oxford cup assay. Conditions: read-out: DIZ.
The test system of experiment [16] is Escherichia coli. As to the kind of experiment: Antibacterial activity against Escherichia coli CMCC (B) 44102 at 320 ug/ml after 24 to 36 hrs by oxford cup assay. Particulars: read-out: DIZ.
For experiment [17], the system named is Staphylococcus aureus. As to the kind of experiment: Antibacterial activity against […] Staphylococcus aureus ATCC 33591 at 160 ug/ml after 24 to 36 hrs by oxford cup assay. Particulars: read-out: DIZ.
The test system of experiment [18] is Staphylococcus aureus. Kind of experiment: Antibacterial activity against […] Staphylococcus aureus ATCC 29213 in iv dosed Balb/c mouse systemic infection model assessed as increase in mouse survival after 7 days. Particulars: for ED50: ATCC 29213, iv, 168 h.
Experiment [19] deals with Staphylococcus aureus. Kind of experiment: Antibacterial activity against […] Staphylococcus aureus ATCC 29213 at 160 ug/ml after 24 to 36 hrs by oxford cup assay. Particulars: read-out: DIZ.
The test system of experiment [20] is Staphylococcus aureus. As to the kind of experiment: Bactericidal activity against […] Staphylococcus aureus ATCC 29213 after 1 to 24 hrs by time-kill assay.
In experiment [21] the test system is Staphylococcus aureus. As to the kind of experiment: Bactericidal activity against Staphylococcus aureus CMCC (B) 26003 after 1 to 24 hrs by time-kill assay.

Turning to `C=C[C@]1(C)C[C@@H](OC(=O)CSc2nc(N)cc(N)n2)[C@]2(C)[C@H](C)CC[C@]3(CCC(=O)[C@H]32)[C@@H](C)[C@@H]1O`, the zone of inhibition at 320 µg/mL in [1] came out at 35.8 mm; in [3], 33.5 mm; in [7] it was 38.3 mm; in experiment [15], 21.9 mm; in experiment [16] it was 14.2 mm. In addition, the minimal inhibitory concentration (MIC) in [2] was determined as 0.125 µg/mL (≈ 0.249 µM); in [4], 2 µg/mL (≈ 3.98 µM); in experiment [5] it was 0.0625 µg/mL (≈ 0.124 µM); in experiment [8] it was 2 µg/mL (≈ 3.98 µM); in experiment [12], 0.0625 µg/mL (≈ 0.124 µM). The zone of inhibition at 160 µg/mL in [6] stood at 11.4 mm; in [9] it was 25.8 mm; in [14] it was 17.4 mm; in experiment [17], 24.2 mm; in experiment [19], 24.7 mm. Further, the Ratio in experiment [10] was found to be 2. The “fold change (FC)” value in experiment [11] is recorded as above 6. Also, the Activity in [13] was 3 - 4 log10CFU/ml; in experiment [18] it was “Dose-dependent effect”; in [20], “Dose-dependent effect”; in experiment [21], “Dose-dependent effect”. Besides, the ED50 in experiment [18] was found to be 4.22 mg/kg.

Regarding `C=C[C@]1(C)C[C@@H](OC(=O)CSCCN(CC)CC)[C@]2(C)[C@H](C)CC[C@]3(CCC(=O)[C@H]32)[C@@H](C)[C@@H]1O` [TIAMULIN], the zone of inhibition at 320 µg/mL in experiment [1] is 33.9 mm; in experiment [3], 29.4 mm; in [7] it was 37.9 mm; in experiment [15] it was 21.3 mm; in experiment [16] it was 13.3 mm. Also, the MIC in experiment [2] is 0.25 µg/mL (≈ 0.506 µM); in experiment [4], 2 µg/mL (≈ 4.05 µM); in experiment [5] it was 0.0625 µg/mL (≈ 0.127 µM); in experiment [8] it was 4 µg/mL (≈ 8.1 µM); in [12], 0.125 µg/mL (≈ 0.253 µM). For the same compound, the zone of inhibition at 160 µg/mL in experiment [6] amounted to 9.42 mm; in experiment [9], 26.1 mm; in experiment [14] it was 17.4 mm; in [17], 20.2 mm; in experiment [19], 22.9 mm. For the same compound, the “fold change (FC)” value in experiment [11] was above 6. The Activity in experiment [13] is 3 - 4 log10CFU/ml; in [18], “Dose-dependent effect”; in experiment [20] it was “Dose-dependent effect”; in experiment [21] it was “Dose-dependent effect”. Moreover, the ED50 in [18] came to 5.94 mg/kg.

By MIC is commonly meant the lowest concentration found to suppress growth. A lower MIC goes with inhibition by little substance. For orientation: ED50 means the dose that gives a 50% effect, or the effect in half of the subjects.
